Reference: US4758565A, “Substituted pyrimidoquinoxalines useful as anti-anaerobic agents” (G. D. Searle & Co., priority 1986, dated 1988)
≈ marks a conversion by molar mass, not a printed value.

Key:
B. fragilis NCTC 10581 = test: Screening panel of Bacteroides fragilis, MIC and MBC, strain A; assay type: cell-based; conditions: for MIC: NCTC10581, 48 hours at 37° C., anaerobic, read-out: Minimum Inhibitory Concentration (MIC); for MBC: NCTC10581, less than 5 colonies (99.9% reduction) after 48 hours, read-out: Minimum Bactericidal Concentration (MBC)
Procedure: (§1) The screening panel utilized in this example consisted of 5 strains of Bacteroides fragilis. All assays were carried out in 96-well microtitre plates. If an isolate was obtained from either a culture collection or clinical source, the isolate was immediately inoculated into Wilkins-Chalgren broth (Oxoid) and incubated at 37° C. in an anaerobic chamber in an atmosphere of 85% nitrogen, 10% carbon dioxide, and 5% hydrogen for 48 hours. At the end of this time, the viable count was about […] broth. A 1 ml aliquot of each culture was placed in an ampoule and quick frozen in acetone-dry ice mixture and stored in liquid nitrogen. […] A 2 mg sample of the test compound was dissolved in 0.2 ml of a suitable solvent such as dimethylsulfoxide, polyethylene glycol 200 or methanol. […] After addition of the test solution the final inoculum level was 10^5 cells/ml. The plates were incubated for 48 hours at 37° C. in the anaerobic chamber. The Minimum Inhibitory Concentration (MIC) was read visually. The MIC is defined as the lowest concentration at which there is no detectable growth. The Minimum Bactericidal Concentration (MBC) was determined by taking 50 μ l aliquot from each well and placing it in fresh medium. […] The strains of Bacteroides fragilis utilized in the above procedure are identified by letter in accordance with the following legend: |A B. fragilis NCTC 10581

B. fragilis NCTC 9353 = test: Screening panel of Bacteroides fragilis, MIC and MBC, strain B; assay type: cell-based; conditions: for MIC / MBC: Bacteroides fragilis, NCTC9353, 48 h; for MIC: read-out: Minimum Inhibitory Concentration (MIC); for MBC: read-out: Minimum Bactericidal Concentration (MBC)
Procedure: as §1, with “|B” for “|A”, “9353” for “10581”

B. fragilis NCTC 9344 = test: Screening panel of Bacteroides fragilis, MIC and MBC, strain C; assay type: cell-based; conditions: for MBC / MIC: Bacteroides fragilis; for MBC: NCTC9344, 48 h, read-out: Minimum Bactericidal Concentration (MBC); for MIC: NCTC9344, 48 hours at 37° C., anaerobic, read-out: Minimum Inhibitory Concentration (MIC)
Procedure: as §1, with “|C” for “|A”, “9344” for “10581”

[1] = test system: B. fragilis MZ-R ATCC 11295; test: Screening panel of Bacteroides fragilis, MIC and MBC, strain D; assay type: cell-based; conditions: ATCC11295, 48 h; for MIC: 48 hours at 37° C., anaerobic, read-out: Minimum Inhibitory Concentration (MIC); for MBC: less than 5 colonies (99.9% reduction) after 48 hours, read-out: Minimum Bactericidal Concentration (MBC)
B. fragilis WS-1 = test: Screening panel of Bacteroides fragilis, MIC and MBC, strain E; assay type: cell-based; conditions: WS1, 48 h; for MIC: 48 hours at 37° C., anaerobic, read-out: Minimum Inhibitory Concentration (MIC); for MBC: less than 5 colonies (99.9% reduction) after 48 hours, read-out: Minimum Bactericidal Concentration (MBC)
Procedure: as §1, with “|E” for “|A”, “WS-1* | *Obtained from St. Thomas's Hospital Medical School, London, United | Kingdom.” for “NCTC 10581”

[2] = test system: Clostridium perfringens NCTC 523; test: microbe, parasite or virus in culture; assay type: cell-based; conditions: NCTC523
[3] = test system: Clostridium difficile NCIB 10666; test: MIC vs panel of anaerobes; assay type: cell-based; conditions: Clostridioides difficile, NCIB10666, procedures of Example 11 (mg/L)
[4] = test system: Campylobacter fetus ss. jejuni ATCC 29428; test: MIC vs panel of anaerobes; assay type: cell-based; conditions: ATCC29428, procedures of Example 11 (mg/L)
[5] = test system: Campylobacter fetus ss. jejuni NCTC 10842; test: MIC vs panel of anaerobes; assay type: cell-based; conditions: NCTC10842, procedures of Example 11 (mg/L)
[6] = test system: Fusobacterium necrophorum ATCC 25286; test: MIC vs panel of anaerobes; assay type: cell-based; conditions: ATCC25286, procedures of Example 11 (mg/L)
[7] = test system: Fusobacterium necrophorum ATCC 11295; test: MIC vs panel of anaerobes; assay type: cell-based; conditions: ATCC11295, procedures of Example 11 (mg/L)
[8] = test system: Bacteroides melanogenicus NCTC 9336; test: MIC vs panel of anaerobes; assay type: cell-based; conditions: NCTC9336, procedures of Example 11 (mg/L)
Peptococcus magnus = test: MIC vs panel of anaerobes; assay type: cell-based; conditions: Finegoldia magna, procedures of Example 11 (mg/L)
[9] = test system: Peptostreptococcus anaerobius; test: MIC vs panel of anaerobes; assay type: cell-based; conditions: procedures of Example 11 (mg/L)
[10] = test system: Propionebacterium acnes NCTC 7337; test: MIC vs panel of anaerobes; assay type: cell-based; conditions: procedures of Example 11 (mg/L)
B. fragilis 23745 = test: In vivo anti-anaerobe activity, mouse hepatic necrosis; conditions: 40 mg/kg (p.o)
[11] = less than 5 colonies (99.9% reduction) after 48 hours

## CCC1(C)CN=C2C(c3ccccc3)=[N+]([O-])c3cc(C(F)(F)F)ccc3N2C1 (stereo not drawn) [Example 4, 2,3-Dihydro-2-ethyl-2-methyl-5-phenyl-8-trifluoromethyl-1H-pyrimido [1,2-a]quinoxaline 6-oxide]
B. fragilis NCTC 10581
  MIC: < 0.8 mg/L
  MBC: 1.5 mg/L (≈ 3.87 µM)
B. fragilis NCTC 9353; 48 hours at 37° C., anaerobic
  MIC: < 0.8 mg/L
B. fragilis NCTC 9353; [11]
  MBC: < 0.8 mg/L
B. fragilis NCTC 9344; [11]
  MBC: < 0.8 mg/L
B. fragilis NCTC 9344
  MIC: < 0.8 mg/L
[1]
  MIC: < 0.8 mg/L
  MBC: < 0.8 mg/L
B. fragilis WS-1
  MIC: < 0.8 mg/L
  MBC: < 0.8 mg/L

## CCC1(C)CN=C2C(c3ccc(C)cc3)=[N+]([O-])c3cc(C(F)(F)F)ccc3N2C1 (stereo not drawn) [Example 6, 2,3-Dihydro-2-ethyl-2-methyl-5-(4-methylphenyl)-8-trifluoromethyl-1H-pyrimdo [1,2-a]quinoxaline 6-oxide]
B. fragilis NCTC 10581
  MIC: 6.2 mg/L (≈ 15.4 µM)
  MBC: 6.2 mg/L (≈ 15.4 µM)
B. fragilis NCTC 9353; 48 hours at 37° C., anaerobic
  MIC: 6.2 mg/L (≈ 15.4 µM)
B. fragilis NCTC 9353; [11]
  MBC: 6.2 mg/L (≈ 15.4 µM)
B. fragilis NCTC 9344; [11]
  MBC: 3.1 mg/L (≈ 7.72 µM)
B. fragilis NCTC 9344
  MIC: 3.1 mg/L (≈ 7.72 µM)
[1]
  MIC: 1.5 mg/L (≈ 3.74 µM)
  MBC: 3.1 mg/L (≈ 7.72 µM)
B. fragilis WS-1
  MIC: 3.1 mg/L (≈ 7.72 µM)
  MBC: 3.1 mg/L (≈ 7.72 µM)

## CC1(C)CN=C2C(c3ccccc3)=[N+]([O-])c3ccc(F)cc3N2C1 [Example 2, 2,3-Dihydro-2,2-dimethyl-9-fluoro-5-phenyl-1H-pyrimido [1,2-a]quinoxaline 6-oxide]
B. fragilis NCTC 9353; 48 hours at 37° C., anaerobic
  MIC: < 0.8 mg/L
B. fragilis NCTC 9353; [11]
  MBC: < 0.8 mg/L
B. fragilis NCTC 9344; [11]
  MBC: 1.5 mg/L (≈ 4.64 µM)
B. fragilis NCTC 9344
  MIC: < 0.8 mg/L
[1]
  MIC: < 0.8 mg/L
  MBC: < 0.8 mg/L
B. fragilis WS-1
  MIC: < 0.8 mg/L
  MBC: < 0.8 mg/L
[2]
  MIC: 3.1 mg/L (≈ 9.59 µM)
[3]
  MIC: 3.1 mg/L (≈ 9.59 µM)
[4]
  MIC: 25 mg/L (≈ 77.3 µM)
[5]
  MIC: 50 mg/L (≈ 155 µM)
[6]
  MIC: < 0.8 mg/L
[7]
  MIC: 3.1 mg/L (≈ 9.59 µM)
[8]
  MIC: 50 mg/L (≈ 155 µM)
Peptococcus magnus
  MIC: < 0.8 mg/L
[9]
  MIC: 1.5 mg/L (≈ 4.64 µM)
[10]
  MIC: 50 mg/L (≈ 155 µM)

## CC1(C)CN=C2C(c3ccccc3)=[N+]([O-])c3cc(C(F)(F)F)ccc3N2C1 [Example 1, 2,3-Dihydro-2,2-dimethyl-5-phenyl-8-trifluoromethyl-1H-pyrimido[1,2-a]quinoxaline 6-oxide]
B. fragilis NCTC 10581
  MIC: 3.1 mg/L (≈ 8.3 µM)
  MBC: 3.1 mg/L (≈ 8.3 µM)
B. fragilis NCTC 9353; 48 hours at 37° C., anaerobic
  MIC: 1.5 mg/L (≈ 4.02 µM)
B. fragilis NCTC 9353; [11]
  MBC: 1.5 mg/L (≈ 4.02 µM)
B. fragilis NCTC 9344; [11]
  MBC: 3.1 mg/L (≈ 8.3 µM)
B. fragilis NCTC 9344
  MIC: 1.5 mg/L (≈ 4.02 µM)
[1]
  MIC: 0.8 mg/L (≈ 2.14 µM)
  MBC: 0.8 mg/L (≈ 2.14 µM)
B. fragilis WS-1
  MIC: 1.5 mg/L (≈ 4.02 µM)
  MBC: 1.5 mg/L (≈ 4.02 µM)
[2]
  MIC: 1.5 mg/L (≈ 4.02 µM)
[3]
  MIC: < 0.8 mg/L
[4]
  MIC: 100 mg/L (≈ 268 µM)
[5]
  MIC: > 100 mg/L
[7]
  MIC: 1.5 mg/L (≈ 4.02 µM)
[8]
  MIC: > 100 mg/L
[9]
  MIC: 100 mg/L (≈ 268 µM)
[10]
  MIC: 100 mg/L (≈ 268 µM)

## Cc1ccc(C2=[N+]([O-])c3cc(C(F)(F)F)ccc3N3CC(C)(C)CN=C23)cc1 [Example 3, 2,3-Dihydro-2,2-dimethyl-5-(4-methylphenyl)-8-trifluoromethyl-1H-pyrimid [1,2-a]quinoxaline 6-oxide]
B. fragilis NCTC 10581
  MIC: < 0.8 mg/L
  MBC: < 0.8 mg/L
B. fragilis NCTC 9353; 48 hours at 37° C., anaerobic
  MIC: 1.5 mg/L (≈ 3.87 µM)
B. fragilis NCTC 9353; [11]
  MBC: 1.5 mg/L (≈ 3.87 µM)
B. fragilis NCTC 9344; [11]
  MBC: 3.1 mg/L (≈ 8 µM)
B. fragilis NCTC 9344
  MIC: 3.1 mg/L (≈ 8 µM)
[1]
  MIC: 1.5 mg/L (≈ 3.87 µM)
  MBC: 6.2 mg/L (≈ 16 µM)
B. fragilis WS-1
  MIC: < 0.8 mg/L
  MBC: 1.5 mg/L (≈ 3.87 µM)
[2]
  MIC: < 0.8 mg/L
[3]
  MIC: < 0.8 mg/L
[4]
  MIC: > 100 mg/L
[5]
  MIC: 12.5 mg/L (≈ 32.3 µM)
[6]
  MIC: < 0.8 mg/L
[7]
  MIC: 6.2 mg/L (≈ 16 µM)
[8]
  MIC: > 100 mg/L
Peptococcus magnus
  MIC: > 100 mg/L
[9]
  MIC: > 100 mg/L
[10]
  MIC: > 100 mg/L

## CC1(C)CN=C2C(c3ccccc3)=[N+]([O-])c3cccc(F)c3N2C1 [Example 5, 2,3-Dihydro-2,2-dimethyl-10-fluoeo-5-phenyl-1H-pyrimido [1,2-a]quinoxaline 6-oxide]
B. fragilis NCTC 10581
  MIC: < 0.8 mg/L
  MBC: 1.5 mg/L (≈ 4.64 µM)
B. fragilis NCTC 9353; 48 hours at 37° C., anaerobic
  MIC: < 0.8 mg/L
B. fragilis NCTC 9353; [11]
  MBC: < 0.8 mg/L
B. fragilis NCTC 9344; [11]
  MBC: < 0.8 mg/L
B. fragilis NCTC 9344
  MIC: < 0.8 mg/L
[1]
  MIC: < 0.8 mg/L
  MBC: < 0.8 mg/L
B. fragilis WS-1
  MIC: < 0.8 mg/L
  MBC: < 0.8 mg/L

## Cc1ncc([N+](=O)[O-])n1CCO [Metronidazole, reference compound]
B. fragilis NCTC 10581
  MIC: < 0.8 mg/L
  MBC: < 0.8 mg/L
B. fragilis NCTC 9353; 48 hours at 37° C., anaerobic
  Minimum Inhibitory Concentration (MIC): 1.5 mg/L
  MIC: < 0.8 mg/L
B. fragilis NCTC 9353; [11]
  MBC: < 0.8 mg/L
  Minimum Bactericidal Concentration (MBC): 1.5 mg/L
B. fragilis NCTC 9344; [11]
  MBC: 1.5 mg/L (≈ 8.76 µM)
  Minimum Bactericidal Concentration (MBC): < 0.8 mg/L
B. fragilis NCTC 9344
  MIC: < 0.8 mg/L
B. fragilis 23745
  reduction in B. fragilis: 3-3.5 log10
